Assay results: patent US9427415B2, “Methods and compositions for modifying sensorial perception” (The Procter & Gamble Company, priority 2014, dated 2016)
Structures can show the parent of a compound that is named as a salt. Where two headings read alike, the source gives them in different places.

What was measured:
[1] = test system: TRPA1V1; assay: Intracellular calcium (Fluo-4, FLIPR) activation of TRPA1V1 cells (co-expressing TRPA1 and TRPV1) by GRAS compounds; assay type: cell-based, human; conditions: relative to AITC 30 μM;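 note: HEK293 cells co-expressing TRPA1 and TRPV1, fluorescence read at 488/514 nm after baseline subtraction, recorded every 2 s over 10 min, ionomycin 10 µM and buffer as controls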
[2] = biological target: T1, human TRPA1 (Homo sapiens, UniProt O75762, K186N/R3C/R58T); assay: Intracellular calcium (Fluo-4, FLIPR) activation of TRPA1 cells by GRAS compounds; assay type: cell-based; conditions: relative to AITC 30 μM; for activation at 1000 µM / A1 activation, % of agonist value: 1 mM; for activation at 1000 µM / activation at 100 µM: read-out: A1 activation, % of agonist value;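 for all read-outs here: TRPA1-expressing cells, fluorescence read on a FLIPR Tetra (ex 488 nm, em 514 nm) every 2 s for 10 min after compound addition, baseline subtracted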
T1 construct: expressed in transfected cells; pcDNA3 control cells
T1 sequence (O75762 whole entry R3C/R58T/K186N): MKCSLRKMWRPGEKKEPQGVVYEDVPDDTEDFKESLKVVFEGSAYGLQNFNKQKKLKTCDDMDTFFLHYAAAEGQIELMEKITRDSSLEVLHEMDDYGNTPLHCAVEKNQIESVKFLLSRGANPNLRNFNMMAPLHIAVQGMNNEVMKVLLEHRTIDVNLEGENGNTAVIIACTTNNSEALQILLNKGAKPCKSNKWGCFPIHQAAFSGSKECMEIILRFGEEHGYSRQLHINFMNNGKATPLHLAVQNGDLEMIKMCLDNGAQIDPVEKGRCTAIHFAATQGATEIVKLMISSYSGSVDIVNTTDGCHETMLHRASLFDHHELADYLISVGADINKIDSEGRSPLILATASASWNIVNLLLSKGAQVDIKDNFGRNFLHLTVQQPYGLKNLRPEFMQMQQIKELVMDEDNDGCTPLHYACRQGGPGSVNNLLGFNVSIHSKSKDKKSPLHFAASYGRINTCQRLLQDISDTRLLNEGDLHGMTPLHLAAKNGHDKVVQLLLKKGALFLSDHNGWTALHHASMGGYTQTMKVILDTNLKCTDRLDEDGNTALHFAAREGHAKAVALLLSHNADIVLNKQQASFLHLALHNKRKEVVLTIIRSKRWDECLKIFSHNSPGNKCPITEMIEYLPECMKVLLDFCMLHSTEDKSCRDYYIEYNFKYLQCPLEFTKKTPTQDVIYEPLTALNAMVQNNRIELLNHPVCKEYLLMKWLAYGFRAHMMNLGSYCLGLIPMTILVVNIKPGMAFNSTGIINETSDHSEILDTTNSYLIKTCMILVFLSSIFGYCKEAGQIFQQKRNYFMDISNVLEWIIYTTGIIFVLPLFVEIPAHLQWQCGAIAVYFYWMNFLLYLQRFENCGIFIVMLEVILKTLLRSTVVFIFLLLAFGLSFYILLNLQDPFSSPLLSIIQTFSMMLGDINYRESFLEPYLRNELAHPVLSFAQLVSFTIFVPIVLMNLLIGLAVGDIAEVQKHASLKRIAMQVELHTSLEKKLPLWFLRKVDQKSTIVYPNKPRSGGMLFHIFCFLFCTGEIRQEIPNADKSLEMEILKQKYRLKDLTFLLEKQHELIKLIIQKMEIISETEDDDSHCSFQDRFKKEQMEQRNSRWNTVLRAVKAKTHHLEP

## C=C(C)CCC[C@H](C)CCO [Rhodinol]
[1]; Table 1(d), 1 mM
  A1V1 activation, % of agonist value: 78.75%
[2]; Table 1(d)
  activation at 1000 µM: 116%

## C=C(C)CCCC(C)CCOC(C)=O (stereo not drawn) [Rhodinyl acetate]
[1]; Table 1(c), 1 mM
  A1V1 activation, % of agonist value: 89.69%
[2]; Table 1(c)
  A1 activation, % of agonist value: 89.06%

## C=C(C)CCC[C@H](C)CCOC(=O)CC(C)C [Rhodinyl isovalerate]
[1]; Table 1(c), 1 mM
  A1V1 activation, % of agonist value: 48.29%
[2]; Table 1(c)
  A1 activation, % of agonist value: 54.92%

## C=C(C)CCC[C@H](C)CCOC(=O)CC [Rhodinyl propionate]
[1]; Table 1(c), 1 mM
  A1V1 activation, % of agonist value: 86.44%
[2]; Table 1(c)
  A1 activation, % of agonist value: 75.56%

## CC1=C(C=O)C(C)(C)CC=C1 [Safranal]
[1]; Table 1(c), 1 mM
  A1V1 activation, % of agonist value: 74.5%
[2]; Table 1(c)
  A1 activation, % of agonist value: 73%

## O=Cc1ccccc1O [Salicylaldehyde]
[1]; Table 1(c), 1 mM
  A1V1 activation, % of agonist value: 65.6%
[2]; Table 1(c)
  activation at 1000 µM: 66.9%

## Cc1c[nH]c2ccccc12 [Skatole]
[1]; Table 1(c), 100 μM (*)
  A1V1 activation, % of agonist value: 71.4%
[1]; Table 1(c), 1 mM
  A1V1 activation, % of agonist value: 102.9%
[2]; Table 1(c)
  activation at 100 µM: 66.2%
  activation at 1000 µM: 116%

## OC[C@H]1O[C@@](CO)(O[C@H]2O[C@H](CO)[C@@H](O)[C@H](O)[C@H]2O)[C@@H](O)[C@@H]1O [Sucrose]
[1]; Table 1(c), 1 mM
  A1V1 activation, % of agonist value: 80.86%
[2]; Table 1(c)
  activation at 1000 µM: 84.1%

## CC1=CCCC(C)(C)C12CCC(C)O2 (stereo not drawn) [Theaspirane]
[1]; Table 1(c), 1 mM
  A1V1 activation, % of agonist value: 84%
[2]; Table 1(c)
  A1 activation, % of agonist value: 99%

## CC/C=C/C=O [Trans-2-Pentenal]
[1]; Table 1(c), 1 mM
  A1V1 activation, % of agonist value: 68.62%
[2]; Table 1(c)
  activation at 1000 µM: 80.9%

## CCCCCCCCC/C=C/C=O [Trans-2-dodecenal]
[1]; Table 1(c), 100 μM (*)
  A1V1 activation, % of agonist value: 66%
[2]; Table 1(c)
  activation at 100 µM: 79.1%

## COc1ccc(/C=C/C=O)cc1 [Trans-p-methoxy cinnamaldehyde]
[1]; Table 1(e), 1 mM
  A1V1 activation, % of agonist value: 75.99%
[2]; Table 1(e)
  activation at 1000 µM: 58.8%

## CC1=CC(C)C(C=O)CC1 (stereo not drawn) [Trivertal]
[1]; Table 1(c), 1 mM
  A1V1 activation, % of agonist value: 36.46%
[2]; Table 1(c)
  A1 activation, % of agonist value: 35.43%

## C=C(C)[C@@H]1CCC2=CCC[C@@H](C)[C@]2(C)C1 [Valencene]
[1]; Table 1(c), 1 mM
  A1V1 activation, % of agonist value: 66.32%
[2]; Table 1(c)
  A1 activation, % of agonist value: 61.97%

## COc1ccc(C=O)cc1OC [Veratraldehyde]
[1]; Table 1(c), 1 mM
  A1V1 activation, % of agonist value: 69.76%
[2]; Table 1(c)
  activation at 1000 µM: 73.8%

## CCCCCC(C=O)=Cc1ccccc1 [alpha-Amylcinnamaldehyde]
[1]; Table 1(c), 1 mM
  A1V1 activation, % of agonist value: 82.7%
[2]; Table 1(c)
  activation at 1000 µM: 86.6%

## CC1=CCC(C(C)(C)OC=O)CC1 (stereo not drawn) [alpha-Terpinyl formate]
[1]; Table 1(c), 1 mM
  A1V1 activation, % of agonist value: 71%
[2]; Table 1(c)
  A1 activation, % of agonist value: 82.2%

## C=C1CC/C=C(\C)CC[C@@H]2[C@@H]1CC2(C)C [beta-Caryophyllene]
[1]; Table 1(d), 1 mM
  A1V1 activation, % of agonist value: 103.8%
[2]; Table 1(d)
  activation at 1000 µM: 134%

## C=CC(C)=CCC=C(C)C [beta-Ocimene]
[1]; Table 1(c), 1 mM
  A1V1 activation, % of agonist value: 92%
[2]; Table 1(c)
  activation at 1000 µM: 112%

## CC/C=C\CCOC(=O)C/C=C\CC [cis-3-Hexenyl cis-3-hexenoate]
[1]; Table 1(c), 1 mM
  A1V1 activation, % of agonist value: 97.4%
[2]; Table 1(c)
  activation at 1000 µM: 107%

## CC/C=C\CCOC(=O)CC(C)C [cis-3-Hexenyl isovalerate]
[1]; Table 1(d), 1 mM
  A1V1 activation, % of agonist value: 51.6%
[2]; Table 1(d)
  activation at 1000 µM: 71.7%

## CC/C=C\CCCCC=O [cis-6-Nonenal]
[1]; Table 1(c), 1 mM
  A1V1 activation, % of agonist value: 93%
[2]; Table 1(c)
  activation at 1000 µM: 108%

## C=CC(O)CCCCCCC (stereo not drawn) [dec-1-en-3-ol]
[1]; Table 1(d), 1 mM
  A1V1 activation, % of agonist value: 69.5%
[2]; Table 1(d)
  activation at 1000 µM: 90%

## Cc1ccc(O)cc1 [p-Cresol]
[1]; Table 1(d), 1 mM
  A1V1 activation, % of agonist value: 38.52%
[2]; Table 1(d)
  activation at 1000 µM: 61%

## CC(=O)c1ccc(O)cc1 [p-Hydroxyacetophenone]
[1]; Table 1(c), 1 mM
  A1V1 activation, % of agonist value: 49.38%
[2]; Table 1(c)
  activation at 1000 µM: 52.8%

## C=C(C)C1CCC(C)C(=O)C1 (stereo not drawn) [p-Menth-8-en-2-one]
[1]; Table 1(e), 1 mM
  A1V1 activation, % of agonist value: 59.5%
[2]; Table 1(e)
  activation at 1000 µM: 39.9%

## CCCC(=O)OCc1ccc(OC)cc1 [p-Methoxybenzyl butyrate]
[1]; Table 1(e), 1 mM
  A1V1 activation, % of agonist value: 58.97%
[2]; Table 1(e)
  activation at 1000 µM: 34%

## CCC/C=C/COC(=O)CCC [trans-2-Hexenyl butyrate]
[1]; Table 1(d), 1 mM
  A1V1 activation, % of agonist value: 20%
[2]; Table 1(d)
  activation at 1000 µM: 48.9%

## CCCCC/C=C/C=O [trans-2-Octanal]
[1]; Table 1(c), 1 mM
  A1V1 activation, % of agonist value: 115%
[2]; Table 1(c)
  A1 activation, % of agonist value: 112%

## Bisabolene
[1]; Table 1(d), 1 mM
  A1V1 activation, % of agonist value: 46.2%
[2]; Table 1(d)
  A1 activation, % of agonist value: 77%

## L-Ascorbic acid, calcium salt (2:1)
[1]; Table 1(c), 1 mM
  A1V1 activation, % of agonist value: 93.20%
[2]; Table 1(c)
  A1 activation, % of agonist value: 88.00%

## Myrtenal
[1]; Table 1(c), 1 mM
  A1V1 activation, % of agonist value: 111.3%
[2]; Table 1(c)
  A1 activation, % of agonist value: 95.8%
